Assays:
[1] = design: method as in Xue et al., 2017; details: citric acid/phosphate buffer (pH 2); ref Xue et al., 2017; cited from earlier work
CYP 2C19 = CYP 2C19 (Homo sapiens, UniProt P33261); test: CYP inhibition, cocktail-substrate method in HLM; type: in vitro ADME; design: 0.5 mg/mL HLM, 1 mmol/L NADPH, and a cocktail of 10 probe substrates for 9 CYP isoforms; tissue BD (Woburn, USA); host or cells: pooled human liver microsomes; details: probe S-mephenytoin
Protocol: (§1) To assess the CYP inhibition profiling of ammoxetine, a high-throughput assay based on the cocktail-substrate method was performed, as described in the literature ([Kim et al., 2005]; [Kozakai et al., 2014]). Microsomal incubations were conducted in triplicate for 30 min at 37°C in a reaction system (200 μL) consisting of […] potassium phosphate buffer (pH 7.4), 0.5 mg/mL HLM, 1 mmol/L NADPH, and a cocktail of 10 probe substrates for 9 CYP isoforms. The final concentration of each CYP-specific substrate was chosen to be close to the Michaelis-Menten constant (K m ) value of the respective substrate ([Kim et al., 2005]; [Lee et al., 2024]). For instance, phenacetin (CYP 1A2) was used at a concentration of 50 μmol/L, coumarin (CYP 2A6) at 5 μmol/L, bupropion (CYP 2B6) at 50 μmol/L, amodiaquine (CYP 2C8) at 5 μmol/L, tolbutamide (CYP 2C9) at 100 μmol/L, S-mephenytoin (CYP 2C19) at 100 μmol/L, dextromethorphan (CYP 2D6) at 5 μmol/L, chlorzoxazone (CYP 2E1) at 50 μmol/L, and testosterone and midazolam (CYP 3A4) at 50 μmol/L. Ammoxetine was evaluated at five concentrations: 0.1, 1, 10, 50, and 100 μmol/L. Additionally, a blank control without ammoxetine was included. The incubation was terminated by adding an equal volume of ice-cold acetonitrile/methanol (1:1, v/v) along with the IS, dexmedetomidine (1 ng/mL). After a 20-fold dilution, the mixture was centrifuged at 13,800×g for 10 min at 4°C. The supernatants were used to measure the levels of metabolites from the respective probe substrates using an LC-MS-MS method. The half-maximal inhibitory concentration (IC50) values were subsequently calculated.

CYP 1A2 = biological target: T1, CYP 1A2 (Homo sapiens, UniProt P05177); test: CYP inhibition, cocktail-substrate method in HLM; type: in vitro ADME; design: 0.5 mg/mL HLM, 1 mmol/L NADPH, and a cocktail of 10 probe substrates for 9 CYP isoforms; tissue BD (Woburn, USA); host or cells: pooled human liver microsomes
T1 sequence (P05177 1-516): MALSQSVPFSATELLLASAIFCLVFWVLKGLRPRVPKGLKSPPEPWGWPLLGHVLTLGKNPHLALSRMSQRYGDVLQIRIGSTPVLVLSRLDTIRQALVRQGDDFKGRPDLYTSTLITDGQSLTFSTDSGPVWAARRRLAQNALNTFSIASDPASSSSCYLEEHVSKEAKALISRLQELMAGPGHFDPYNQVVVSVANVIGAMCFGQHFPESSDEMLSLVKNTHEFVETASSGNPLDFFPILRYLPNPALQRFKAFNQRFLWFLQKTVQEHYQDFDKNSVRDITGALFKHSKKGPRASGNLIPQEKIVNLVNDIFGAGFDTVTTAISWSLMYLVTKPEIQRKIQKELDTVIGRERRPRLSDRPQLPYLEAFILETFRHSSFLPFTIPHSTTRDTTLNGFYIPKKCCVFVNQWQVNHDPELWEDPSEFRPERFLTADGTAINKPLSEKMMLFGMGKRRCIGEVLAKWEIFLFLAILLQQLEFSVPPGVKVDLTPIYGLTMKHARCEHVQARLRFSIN
Protocol: as §1

CYP 2D6 = CYP 2D6 (Homo sapiens, UniProt P10635); test: CYP inhibition, cocktail-substrate method in HLM; type: in vitro ADME; design: 0.5 mg/mL HLM, 1 mmol/L NADPH, and a cocktail of 10 probe substrates for 9 CYP isoforms; tissue BD (Woburn, USA); host or cells: pooled human liver microsomes
Sequence of CYP 2D6 (P10635 whole entry, canonical isoform): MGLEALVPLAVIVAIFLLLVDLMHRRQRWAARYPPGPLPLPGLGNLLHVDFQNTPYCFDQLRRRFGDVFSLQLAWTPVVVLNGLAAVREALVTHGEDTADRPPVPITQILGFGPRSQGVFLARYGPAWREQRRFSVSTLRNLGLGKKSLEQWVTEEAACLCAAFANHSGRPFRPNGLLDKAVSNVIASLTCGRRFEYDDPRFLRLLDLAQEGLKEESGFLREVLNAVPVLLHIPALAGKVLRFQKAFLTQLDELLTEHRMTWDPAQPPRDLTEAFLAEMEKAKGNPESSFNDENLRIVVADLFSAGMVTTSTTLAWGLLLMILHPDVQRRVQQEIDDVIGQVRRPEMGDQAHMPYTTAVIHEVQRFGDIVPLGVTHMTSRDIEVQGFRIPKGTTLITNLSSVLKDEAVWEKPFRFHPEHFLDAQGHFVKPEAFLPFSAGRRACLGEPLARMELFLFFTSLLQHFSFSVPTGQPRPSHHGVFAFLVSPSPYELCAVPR
Protocol: as §1

CYP 3A4 = CYP 3A4 (Homo sapiens, UniProt P08684); test: CYP inhibition, cocktail-substrate method in HLM; type: in vitro ADME; design: 0.5 mg/mL HLM, 1 mmol/L NADPH, and a cocktail of 10 probe substrates for 9 CYP isoforms; tissue BD (Woburn, USA); host or cells: pooled human liver microsomes; details: probes testosterone and midazolam
Sequence of CYP 3A4 (P08684 whole entry, canonical isoform): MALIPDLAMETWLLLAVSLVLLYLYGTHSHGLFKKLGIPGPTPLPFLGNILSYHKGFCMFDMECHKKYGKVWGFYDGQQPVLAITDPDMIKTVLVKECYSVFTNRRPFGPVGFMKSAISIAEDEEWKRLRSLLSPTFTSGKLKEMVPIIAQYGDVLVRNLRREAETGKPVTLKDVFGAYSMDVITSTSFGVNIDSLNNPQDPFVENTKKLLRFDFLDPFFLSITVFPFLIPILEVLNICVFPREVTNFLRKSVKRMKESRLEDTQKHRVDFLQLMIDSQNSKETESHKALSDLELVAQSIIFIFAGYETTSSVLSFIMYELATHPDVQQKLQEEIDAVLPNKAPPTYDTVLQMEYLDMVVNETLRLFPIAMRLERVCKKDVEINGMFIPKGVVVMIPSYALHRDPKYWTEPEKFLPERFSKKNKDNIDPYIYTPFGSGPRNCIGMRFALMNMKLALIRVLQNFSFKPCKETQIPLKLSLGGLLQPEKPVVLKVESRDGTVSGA
Protocol: as §1

CYP 2C9 = CYP 2C9 (Homo sapiens, UniProt P11712); test: CYP inhibition, cocktail-substrate method in HLM; type: in vitro ADME; design: 0.5 mg/mL HLM, 1 mmol/L NADPH, and a cocktail of 10 probe substrates for 9 CYP isoforms; tissue BD (Woburn, USA); host or cells: pooled human liver microsomes; details: probe tolbutamide
Sequence of CYP 2C9 (P11712 whole entry, canonical isoform): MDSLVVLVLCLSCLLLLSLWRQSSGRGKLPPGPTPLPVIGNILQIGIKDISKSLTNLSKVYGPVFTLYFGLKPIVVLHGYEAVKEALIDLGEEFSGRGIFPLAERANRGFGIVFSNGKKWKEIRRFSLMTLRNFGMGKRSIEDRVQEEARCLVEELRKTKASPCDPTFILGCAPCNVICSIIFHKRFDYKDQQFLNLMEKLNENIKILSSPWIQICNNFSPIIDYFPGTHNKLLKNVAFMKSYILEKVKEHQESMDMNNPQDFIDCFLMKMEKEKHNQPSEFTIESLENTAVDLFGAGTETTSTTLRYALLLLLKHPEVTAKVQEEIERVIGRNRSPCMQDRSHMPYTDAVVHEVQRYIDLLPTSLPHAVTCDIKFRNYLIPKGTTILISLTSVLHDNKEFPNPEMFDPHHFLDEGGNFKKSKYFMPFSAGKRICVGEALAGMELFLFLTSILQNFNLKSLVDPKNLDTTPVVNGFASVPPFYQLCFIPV
Protocol: as §1

Sequence of CYP 2C19 (P33261 whole entry, canonical isoform): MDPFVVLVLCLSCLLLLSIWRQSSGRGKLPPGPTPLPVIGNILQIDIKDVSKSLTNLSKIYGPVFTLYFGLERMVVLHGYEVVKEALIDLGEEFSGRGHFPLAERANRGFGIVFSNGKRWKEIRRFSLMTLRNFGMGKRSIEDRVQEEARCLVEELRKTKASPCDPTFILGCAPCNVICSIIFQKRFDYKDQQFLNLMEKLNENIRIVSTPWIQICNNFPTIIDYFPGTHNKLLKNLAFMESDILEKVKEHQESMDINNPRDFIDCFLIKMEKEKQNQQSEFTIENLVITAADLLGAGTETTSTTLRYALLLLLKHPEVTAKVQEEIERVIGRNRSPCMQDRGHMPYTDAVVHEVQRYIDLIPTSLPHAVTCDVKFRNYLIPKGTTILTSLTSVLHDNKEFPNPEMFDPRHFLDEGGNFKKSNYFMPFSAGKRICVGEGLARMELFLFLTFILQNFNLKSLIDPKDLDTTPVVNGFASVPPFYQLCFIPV

IC50 (CYP 2C19): > 100 µM | IC50 (CYP 1A2; HLM, probe phenacetin): > 100 µM | probe substrate levels, % of the original blank group (CYP 1A2; ammoxetine 100 μmol/L): ~72.30% | IC50 (CYP 2D6; HLM, probe dextromethorphan): > 100 µM | probe substrate levels, % of the original blank group (CYP 2D6; ammoxetine 100 μmol/L): approximately 65.86% | IC50 (CYP 3A4): > 100 µM | IC50 (CYP 2C9): > 100 µM
Compound: CNCC[C@H](Oc1cccc2c1OCO2)c1cccs1 [ammoxetine]
stability in buffer [1]: instability

— paper PMC11579541, “In vitro, in vivo, and in silico approaches for evaluating the preclinical DMPK profiles of ammoxetine, a novel chiral serotonin and norepinephrine reuptake inhibitor” (Frontiers in Pharmacology, 2024)
